Measured values as given in ChEMBL document CHEMBL1255217, “Bioisosteric replacement leading to biologically active [2.2]paracyclophanes with altered binding profiles for aminergic G-protein-coupled receptors” (J Med Chem, 2010).
The source made the active and inactive calls. The rule behind the calls is not given here.

Assays:
[1] = Displacement of [3H]Prazosin from adrenergic alpha1 receptor in pig cerebral cortex homogenates; format: tissue-based, Sus scrofa
D(3) dopamine receptor [2] = biological target: T1, D(3) dopamine receptor (Homo sapiens, UniProt P35462); assay: Displacement of [3H]Spiperone from human dopamine D3 receptor expressed in CHO cells; format: cell-based
D(1A) dopamine receptor = D(1A) dopamine receptor (Sus scrofa, UniProt P50130); assay: Displacement of [3H]SCH23390 from dopamine D1 receptor in pig striatal membranes; format: cell membranes, Striatum, Membrane
[3] = biological target: 5-hydroxytryptamine receptor 2A (Sus scrofa, UniProt P50129); assay: Displacement of [3H]Ketanserin from 5-HT2 receptor in pig cortex membranes; format: cell membranes
D(4) dopamine receptor = biological target: T2, D(4) dopamine receptor (Homo sapiens, UniProt P21917); assay: Displacement of [3H]Spiperone from human dopamine D4.4 receptor expressed in CHO cells; format: cell-based
T2 sequence (P21917 whole entry): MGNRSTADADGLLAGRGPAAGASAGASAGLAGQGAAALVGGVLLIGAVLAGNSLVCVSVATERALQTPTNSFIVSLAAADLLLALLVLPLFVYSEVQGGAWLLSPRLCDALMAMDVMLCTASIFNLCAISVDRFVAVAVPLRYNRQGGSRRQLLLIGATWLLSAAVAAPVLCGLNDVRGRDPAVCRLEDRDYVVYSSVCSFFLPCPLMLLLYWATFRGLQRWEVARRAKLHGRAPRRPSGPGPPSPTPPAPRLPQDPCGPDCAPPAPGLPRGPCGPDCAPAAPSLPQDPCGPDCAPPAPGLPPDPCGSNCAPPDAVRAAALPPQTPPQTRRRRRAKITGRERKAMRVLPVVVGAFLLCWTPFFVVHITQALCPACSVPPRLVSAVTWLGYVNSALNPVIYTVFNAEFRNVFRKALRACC

D(2) dopamine receptor [4] = biological target: T3, D(2) dopamine receptor (Homo sapiens, UniProt P14416); assay: Displacement of [3H]Spiperone from human dopamine D2 short receptor expressed in CHO cells; format: cell-based
D(2) dopamine receptor [5] = biological target: T3, D(2) dopamine receptor; assay: Displacement of [3H]Spiperone from human dopamine D2 long receptor expressed in CHO cells; format: cell-based
Homo sapiens [6] = organism: Homo sapiens; assay: Selectivity ratio of Ki for wild type human dopamine D3 receptor to Ki for human dopamine D3 receptor V2.61F mutant
Homo sapiens [7] = organism: Homo sapiens; assay: Selectivity ratio of Ki for wild type human dopamine D3 receptor to Ki for human dopamine D3 receptor F6.52W mutant
D(3) dopamine receptor [8] = biological target: T1, D(3) dopamine receptor; assay: Agonist activity at human dopamine D3 receptor expressed in dhfr deficient CHO cells assessed as [3H]thymidine incorporation; format: functional, cell-based

Chain of D(1A) dopamine receptor (P50130 whole entry): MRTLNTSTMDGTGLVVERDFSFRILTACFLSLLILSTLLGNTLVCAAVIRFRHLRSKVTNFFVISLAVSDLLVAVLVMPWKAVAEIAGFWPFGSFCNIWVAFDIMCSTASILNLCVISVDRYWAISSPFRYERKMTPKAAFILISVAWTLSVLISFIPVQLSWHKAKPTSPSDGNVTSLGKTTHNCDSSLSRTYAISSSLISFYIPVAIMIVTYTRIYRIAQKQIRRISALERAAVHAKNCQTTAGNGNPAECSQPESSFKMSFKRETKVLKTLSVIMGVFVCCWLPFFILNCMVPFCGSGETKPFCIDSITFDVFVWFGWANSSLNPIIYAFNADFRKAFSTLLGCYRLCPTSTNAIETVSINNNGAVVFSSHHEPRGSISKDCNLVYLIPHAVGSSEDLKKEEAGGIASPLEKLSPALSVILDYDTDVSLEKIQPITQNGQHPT
T3 sequence (P14416 whole entry): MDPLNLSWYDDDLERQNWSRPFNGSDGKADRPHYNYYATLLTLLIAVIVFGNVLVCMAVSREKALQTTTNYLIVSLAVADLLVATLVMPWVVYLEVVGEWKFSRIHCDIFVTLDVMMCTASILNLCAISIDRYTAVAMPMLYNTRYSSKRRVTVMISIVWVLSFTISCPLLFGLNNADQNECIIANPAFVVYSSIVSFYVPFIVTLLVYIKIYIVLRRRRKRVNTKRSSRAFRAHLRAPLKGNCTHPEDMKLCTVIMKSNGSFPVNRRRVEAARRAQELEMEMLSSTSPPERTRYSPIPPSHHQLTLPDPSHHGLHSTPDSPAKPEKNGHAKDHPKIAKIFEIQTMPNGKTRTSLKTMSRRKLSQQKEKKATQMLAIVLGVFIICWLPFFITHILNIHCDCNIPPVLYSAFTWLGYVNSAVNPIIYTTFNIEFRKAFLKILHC
Chain of 5-hydroxytryptamine receptor 2A (P50129 whole entry): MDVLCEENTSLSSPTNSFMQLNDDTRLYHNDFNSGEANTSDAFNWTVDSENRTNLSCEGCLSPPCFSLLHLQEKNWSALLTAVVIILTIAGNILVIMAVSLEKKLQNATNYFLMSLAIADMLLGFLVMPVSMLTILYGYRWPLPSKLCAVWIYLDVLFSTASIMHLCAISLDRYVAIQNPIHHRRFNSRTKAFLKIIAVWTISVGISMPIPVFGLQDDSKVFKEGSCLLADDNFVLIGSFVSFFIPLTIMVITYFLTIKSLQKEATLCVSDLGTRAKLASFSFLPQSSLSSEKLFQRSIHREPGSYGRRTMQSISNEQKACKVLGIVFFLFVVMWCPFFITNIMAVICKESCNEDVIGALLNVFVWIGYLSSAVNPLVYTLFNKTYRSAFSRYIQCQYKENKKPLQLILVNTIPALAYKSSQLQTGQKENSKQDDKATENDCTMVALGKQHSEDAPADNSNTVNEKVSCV
T1 sequence (P35462 whole entry): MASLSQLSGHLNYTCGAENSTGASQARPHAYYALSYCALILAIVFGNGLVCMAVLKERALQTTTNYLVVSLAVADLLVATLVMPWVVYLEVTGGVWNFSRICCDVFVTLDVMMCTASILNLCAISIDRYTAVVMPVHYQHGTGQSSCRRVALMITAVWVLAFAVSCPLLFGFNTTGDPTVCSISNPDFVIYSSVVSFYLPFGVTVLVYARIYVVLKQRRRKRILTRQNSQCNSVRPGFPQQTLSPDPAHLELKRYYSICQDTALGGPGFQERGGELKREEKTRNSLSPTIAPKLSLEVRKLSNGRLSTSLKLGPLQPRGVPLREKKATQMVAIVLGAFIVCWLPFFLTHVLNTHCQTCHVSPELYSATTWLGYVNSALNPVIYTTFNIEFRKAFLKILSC

Ki [1]	Ki (D(3) dopamine receptor [2])	Ki (D(1A) dopamine receptor)	Ki [3]	Ki (D(4) dopamine receptor)	Ki (D(2) dopamine receptor [4])	Ki (D(2) dopamine receptor [5])	Ratio Ki (Homo sapiens [6])	Ratio Ki (Homo sapiens [7])	Activity (D(3) dopamine receptor [8])	SMILES
840 nM	4 nM	7800 nM	8200 nM	170 nM	48 nM	32 nM	–	–	–	O=C(NCCCCN1CCN(c2cc3ccc2CCc2ccc(cc2)CC3)CC1)c1cc2ccc1CCc1ccc(cc1)CC2
20 nM	2.5 nM	2400 nM	1500 nM	300 nM	65 nM	84 nM	40	38	–	Cc1ccc(C)c(N2CCN(CCCCNC(=O)c3cc4ccccc4s3)CC2)c1
29 nM	28 nM	3200 nM	3600 nM	220 nM	86 nM	99 nM	–	–	–	Cc1ccc(C)c(C(=O)NCCCCN2CCN(c3cc(C)ccc3C)CC2)c1
14 nM	–	–	350 nM	–	–	–	–	–	–	COc1ccccc1N1CCN(CCCCNC(=O)c2cc3ccccc3s2)CC1
490 nM	1.6 nM	4000 nM	1000 nM	880 nM	150 nM	83 nM	24	2.4	inactive	O=C(NCCCCN1CCN(c2cc3ccc2CCc2ccc(cc2)CC3)CC1)c1cc2ccccc2s1
4.2 nM	0.49 nM	680 nM	2200 nM	11 nM	18 nM	24 nM	–	–	–	COc1ccccc1N1CCN(CCCCNC(=O)c2cc3ccc2CCc2ccc(cc2)CC3)CC1
3.2 nM	76 nM	210 nM	850 nM	17 nM	16 nM	13 nM	–	–	–	Cc1ccc(C)c(N2CCN(CCCC(=O)c3ccc(F)cc3)CC2)c1
13 nM	–	340 nM	440 nM	7.6 nM	61 nM	63 nM	–	–	–	O=C(CCCN1CCN(c2ccc(Cl)cc2)CC1)c1ccc(F)cc1

Continued, molecule first:

SMILES	Ki [1]	Ki (D(3) dopamine receptor [2])	Ki (D(1A) dopamine receptor)	Ki [3]	Ki (D(4) dopamine receptor)	Ki (D(2) dopamine receptor [4])	Ki (D(2) dopamine receptor [5])	Ratio Ki (Homo sapiens [6])	Ratio Ki (Homo sapiens [7])	Activity (D(3) dopamine receptor [8])
Cc1ccc(C)c(C(=O)CCCN2CCC(O)(c3cc(C)ccc3C)CC2)c1	11 nM	280 nM	590 nM	1700 nM	30 nM	–	–	–	–	–
COc1ccccc1N1CCN(CCCCNC(=O)c2cc(C)ccc2C)CC1	14 nM	4.7 nM	2100 nM	1500 nM	23 nM	17 nM	22 nM	–	–	–
Cc1ccc(C)c(C2(O)CCN(CCCC(=O)c3ccc(F)cc3)CC2)c1	1.3 nM	27 nM	19 nM	110 nM	20 nM	6.5 nM	3.4 nM	–	–	–
O=C(CCCN1CCC(O)(c2ccc(Cl)cc2)CC1)c1cc2ccc1CCc1ccc(cc1)CC2	–	17 nM	9800 nM	2400 nM	39 nM	–	–	–	–	–
O=C(CCCN1CCC(O)(c2ccc(Cl)cc2)CC1)c1ccc(F)cc1 [HALOPERIDOL]	6.8 nM	–	–	–	–	–	–	–	–	–
O=C(CCCN1CCC(O)(c2cc3ccc2CCc2ccc(cc2)CC3)CC1)c1ccc(F)cc1	2.9 nM	53 nM	100 nM	19 nM	0.72 nM	3.6 nM	4.8 nM	–	–	–
O=C(CCCN1CCC(O)(c2cc3ccc2CCc2ccc(cc2)CC3)CC1)c1cc2ccc1CCc1ccc(cc1)CC2	2800 nM	38 nM	4900 nM	1200 nM	30 nM	–	–	–	–	–
O=C(CCCN1CCN(c2cc3ccc2CCc2ccc(cc2)CC3)CC1)c1ccc(F)cc1	71 nM	9.9 nM	590 nM	450 nM	120 nM	22 nM	19 nM	–	–	–
Cc1ccc(C)c(C(=O)CCCN2CCC(O)(c3ccc(Cl)cc3)CC2)c1	35 nM	73 nM	3800 nM	690 nM	61 nM	43 nM	15 nM	–	–	–
O=C(CCCN1CCN(c2ccc(Cl)cc2)CC1)c1cc2ccc1CCc1ccc(cc1)CC2	180 nM	410 nM	5400 nM	1700 nM	120 nM	440 nM	620 nM	–	–	–
